Measurements taken from US20250312462A1, “PAK1 DEGRADERS AND METHODS OF USE THEREOF” (INSTITUTE FOR CANCER RESEARCH D/B/A THE RESEARCH INSTITUTE …, priority 2022, published 2025).

Assays:
Experiment in all cases: KINOMEscan
Conditions in all cases: read-out: Percent Control
TGFBR2 = TGFBR2 (Homo sapiens, UniProt P37173)
Protocol: (§1) The kinase engagement assay (KINOMEscan®) was performed by DiscoverX assessing binding abilities toward a set of kinases.

STK33 = STK33 (Homo sapiens, UniProt Q9BYT3)
Protocol: as §1

TNK1 = TNK1 (Homo sapiens, UniProt Q13470)
Protocol: as §1

ADCK3 = ADCK3 (Homo sapiens, UniProt Q8NI60)
Protocol: as §1

SIK = SIK (Homo sapiens, UniProt P57059)
Protocol: as §1

[1] = target: EGFR(L747-E749del, A750P) (Homo sapiens, UniProt P00533, A750P/DEL747-749)
Protocol: as §1

GRK3 = GRK3 (Homo sapiens, UniProt P35626)
Sequence of GRK3 (P35626 whole entry): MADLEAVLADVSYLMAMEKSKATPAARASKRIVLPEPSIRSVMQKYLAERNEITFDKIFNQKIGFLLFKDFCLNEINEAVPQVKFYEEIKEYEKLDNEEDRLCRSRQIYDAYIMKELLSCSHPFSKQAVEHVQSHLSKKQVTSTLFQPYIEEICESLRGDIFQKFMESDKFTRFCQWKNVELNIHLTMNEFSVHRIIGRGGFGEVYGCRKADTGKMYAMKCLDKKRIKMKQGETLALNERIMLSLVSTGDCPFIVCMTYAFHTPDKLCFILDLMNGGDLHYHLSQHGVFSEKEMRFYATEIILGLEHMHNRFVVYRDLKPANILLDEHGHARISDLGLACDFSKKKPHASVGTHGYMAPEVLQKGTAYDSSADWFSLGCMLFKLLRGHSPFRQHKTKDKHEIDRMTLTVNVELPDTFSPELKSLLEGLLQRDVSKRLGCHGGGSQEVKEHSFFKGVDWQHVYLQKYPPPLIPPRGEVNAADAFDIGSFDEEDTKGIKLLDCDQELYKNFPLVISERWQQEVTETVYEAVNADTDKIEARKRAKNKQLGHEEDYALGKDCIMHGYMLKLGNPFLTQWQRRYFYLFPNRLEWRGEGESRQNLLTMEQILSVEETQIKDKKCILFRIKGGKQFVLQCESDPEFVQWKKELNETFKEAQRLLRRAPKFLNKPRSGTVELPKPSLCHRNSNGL
Protocol: as §1

ERK1 = ERK1 (Homo sapiens, UniProt P27361)
Protocol: as §1

WEE1 = WEE1 (Homo sapiens, UniProt P30291)
Protocol: as §1

ERBB4 = ERBB4 (Homo sapiens, UniProt Q15303)
Protocol: as §1

MAP3K2 = MAP3K2 (Homo sapiens, UniProt Q9Y2U5)
Protocol: as §1

ASK1 = ASK1 (Homo sapiens, UniProt Q99683)
Sequence of ASK1 (Q99683 whole entry): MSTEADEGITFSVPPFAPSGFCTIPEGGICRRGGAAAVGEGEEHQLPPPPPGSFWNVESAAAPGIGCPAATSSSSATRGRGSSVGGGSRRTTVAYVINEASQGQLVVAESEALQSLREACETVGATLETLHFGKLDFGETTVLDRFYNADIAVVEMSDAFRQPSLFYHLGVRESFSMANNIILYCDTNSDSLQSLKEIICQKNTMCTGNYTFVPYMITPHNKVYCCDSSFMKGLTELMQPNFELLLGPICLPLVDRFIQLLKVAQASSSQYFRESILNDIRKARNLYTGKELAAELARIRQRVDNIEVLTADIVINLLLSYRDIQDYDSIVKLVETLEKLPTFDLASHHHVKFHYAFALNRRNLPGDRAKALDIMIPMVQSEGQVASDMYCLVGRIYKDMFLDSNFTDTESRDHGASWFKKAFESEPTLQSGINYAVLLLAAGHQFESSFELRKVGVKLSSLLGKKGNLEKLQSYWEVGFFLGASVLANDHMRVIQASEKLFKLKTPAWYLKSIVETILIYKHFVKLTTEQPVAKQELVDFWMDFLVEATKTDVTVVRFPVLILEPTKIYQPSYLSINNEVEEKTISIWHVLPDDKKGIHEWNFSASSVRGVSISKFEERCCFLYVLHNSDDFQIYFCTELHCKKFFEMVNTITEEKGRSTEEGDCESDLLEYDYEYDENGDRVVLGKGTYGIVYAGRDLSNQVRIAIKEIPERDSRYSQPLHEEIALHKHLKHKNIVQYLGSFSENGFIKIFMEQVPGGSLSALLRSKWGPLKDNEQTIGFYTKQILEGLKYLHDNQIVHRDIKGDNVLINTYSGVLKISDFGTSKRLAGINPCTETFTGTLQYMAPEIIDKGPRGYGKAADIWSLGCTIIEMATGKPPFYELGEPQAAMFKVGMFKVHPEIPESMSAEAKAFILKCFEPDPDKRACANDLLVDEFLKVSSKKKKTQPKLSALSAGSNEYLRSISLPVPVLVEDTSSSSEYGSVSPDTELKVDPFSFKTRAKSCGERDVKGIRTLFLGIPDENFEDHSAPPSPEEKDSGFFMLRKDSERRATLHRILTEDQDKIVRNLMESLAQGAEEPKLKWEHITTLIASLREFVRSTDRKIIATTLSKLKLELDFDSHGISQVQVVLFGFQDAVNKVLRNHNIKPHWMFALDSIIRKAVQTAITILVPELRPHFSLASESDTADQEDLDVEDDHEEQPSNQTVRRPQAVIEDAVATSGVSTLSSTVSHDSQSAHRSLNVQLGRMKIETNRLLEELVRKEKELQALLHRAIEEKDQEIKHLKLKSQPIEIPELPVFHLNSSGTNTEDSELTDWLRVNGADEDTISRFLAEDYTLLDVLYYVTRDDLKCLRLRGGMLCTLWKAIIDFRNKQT
Protocol: as §1

PYK2 = PYK2 (Homo sapiens, UniProt Q14289)
Protocol: as §1

EIF2AK1 = EIF2AK1 (Homo sapiens, UniProt Q9BQI3)
Protocol: as §1

PHKG2 = PHKG2 (Homo sapiens, UniProt P15735)
Sequence of PHKG2 (P15735 whole entry): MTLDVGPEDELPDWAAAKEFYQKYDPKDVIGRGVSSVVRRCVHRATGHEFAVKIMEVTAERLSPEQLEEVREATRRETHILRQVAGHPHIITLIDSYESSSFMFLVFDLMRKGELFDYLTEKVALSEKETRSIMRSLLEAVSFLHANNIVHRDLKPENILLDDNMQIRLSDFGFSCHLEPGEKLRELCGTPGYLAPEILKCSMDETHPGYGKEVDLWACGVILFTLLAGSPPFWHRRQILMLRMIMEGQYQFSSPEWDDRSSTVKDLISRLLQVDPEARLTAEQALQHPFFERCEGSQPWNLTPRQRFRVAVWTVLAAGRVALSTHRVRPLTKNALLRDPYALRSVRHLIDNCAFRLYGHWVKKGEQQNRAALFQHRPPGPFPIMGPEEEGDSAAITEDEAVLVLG
Protocol: as §1

ALK = ALK (Homo sapiens, UniProt Q9UM73)
Protocol: as §1

CTK = CTK (Homo sapiens, UniProt P42679)
Protocol: as §1

ROS1 = ROS1 (Homo sapiens, UniProt P08922)
Protocol: as §1

CDKL3 = CDKL3 (Homo sapiens, UniProt Q8IVW4)
Sequence of CDKL3 (Q8IVW4 whole entry): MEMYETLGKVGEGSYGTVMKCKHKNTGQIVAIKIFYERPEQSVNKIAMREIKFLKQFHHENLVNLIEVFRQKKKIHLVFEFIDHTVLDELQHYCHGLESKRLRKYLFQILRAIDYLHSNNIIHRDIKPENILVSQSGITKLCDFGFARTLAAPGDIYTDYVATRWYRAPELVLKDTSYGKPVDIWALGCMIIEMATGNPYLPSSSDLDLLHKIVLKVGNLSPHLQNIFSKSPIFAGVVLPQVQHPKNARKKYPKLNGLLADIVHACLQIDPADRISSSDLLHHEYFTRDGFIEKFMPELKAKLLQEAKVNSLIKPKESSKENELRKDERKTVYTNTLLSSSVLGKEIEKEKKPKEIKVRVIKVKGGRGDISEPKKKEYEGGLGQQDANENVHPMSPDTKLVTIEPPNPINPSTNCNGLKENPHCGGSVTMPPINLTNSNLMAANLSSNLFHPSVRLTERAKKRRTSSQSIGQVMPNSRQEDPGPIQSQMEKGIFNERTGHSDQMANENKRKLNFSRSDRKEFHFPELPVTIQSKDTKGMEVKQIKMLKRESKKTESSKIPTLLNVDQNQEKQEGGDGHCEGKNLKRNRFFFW
Protocol: as §1

[2] = target: ABL1(T315I)-phosphorylated (Homo sapiens, UniProt P00519, T315I)
Protocol: as §1

MST3 = MST3 (Homo sapiens, UniProt Q9Y6E0)
Protocol: as §1

SGK3 = SGK3 (Homo sapiens, UniProt Q96BR1)
Sequence of SGK3 (Q96BR1 whole entry): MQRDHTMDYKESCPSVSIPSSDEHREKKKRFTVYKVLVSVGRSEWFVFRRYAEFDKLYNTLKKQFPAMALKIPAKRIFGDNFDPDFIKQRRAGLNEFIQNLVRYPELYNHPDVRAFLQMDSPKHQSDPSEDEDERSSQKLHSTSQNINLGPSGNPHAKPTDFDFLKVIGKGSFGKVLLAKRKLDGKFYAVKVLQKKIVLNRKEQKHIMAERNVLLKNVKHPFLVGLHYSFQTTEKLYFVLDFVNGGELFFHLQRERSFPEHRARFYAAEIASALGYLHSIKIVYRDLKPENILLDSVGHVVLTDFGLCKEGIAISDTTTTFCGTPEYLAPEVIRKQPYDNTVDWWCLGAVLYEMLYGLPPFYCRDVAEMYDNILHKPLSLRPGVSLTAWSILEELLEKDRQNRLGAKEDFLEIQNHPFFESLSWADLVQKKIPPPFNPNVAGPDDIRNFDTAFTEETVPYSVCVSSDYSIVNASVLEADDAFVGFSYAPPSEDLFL
Protocol: as §1

CAMK1D = CAMK1D (Homo sapiens, UniProt Q8IU85)
Sequence of CAMK1D (Q8IU85 whole entry): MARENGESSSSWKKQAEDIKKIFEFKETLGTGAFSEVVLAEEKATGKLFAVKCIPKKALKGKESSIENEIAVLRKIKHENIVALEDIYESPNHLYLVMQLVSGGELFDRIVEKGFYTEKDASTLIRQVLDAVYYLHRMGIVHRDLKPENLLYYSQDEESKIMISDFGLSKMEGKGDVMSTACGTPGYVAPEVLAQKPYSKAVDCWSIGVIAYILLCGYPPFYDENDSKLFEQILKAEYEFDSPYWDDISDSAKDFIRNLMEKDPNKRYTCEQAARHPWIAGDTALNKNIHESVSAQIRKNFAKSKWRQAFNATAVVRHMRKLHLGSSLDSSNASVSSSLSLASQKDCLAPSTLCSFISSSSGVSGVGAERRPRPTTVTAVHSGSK
Protocol: as §1

NEK9 = NEK9 (Homo sapiens, UniProt Q8TD19)
Protocol: as §1

PKN1 = PKN1 (Homo sapiens, UniProt Q16512)
Protocol: as §1

RET(M918T) = RET(M918T) (Homo sapiens, UniProt P07949, M918T)
Protocol: as §1

DRAK1 = DRAK1 (Homo sapiens, UniProt Q9UEE5)
Protocol: as §1

DAPK3 = DAPK3 (Homo sapiens, UniProt O43293)
Protocol: as §1

TLK2 = TLK2 (Homo sapiens, UniProt Q86UE8)
Protocol: as §1

Sequence of TGFBR2 (P37173 23-567): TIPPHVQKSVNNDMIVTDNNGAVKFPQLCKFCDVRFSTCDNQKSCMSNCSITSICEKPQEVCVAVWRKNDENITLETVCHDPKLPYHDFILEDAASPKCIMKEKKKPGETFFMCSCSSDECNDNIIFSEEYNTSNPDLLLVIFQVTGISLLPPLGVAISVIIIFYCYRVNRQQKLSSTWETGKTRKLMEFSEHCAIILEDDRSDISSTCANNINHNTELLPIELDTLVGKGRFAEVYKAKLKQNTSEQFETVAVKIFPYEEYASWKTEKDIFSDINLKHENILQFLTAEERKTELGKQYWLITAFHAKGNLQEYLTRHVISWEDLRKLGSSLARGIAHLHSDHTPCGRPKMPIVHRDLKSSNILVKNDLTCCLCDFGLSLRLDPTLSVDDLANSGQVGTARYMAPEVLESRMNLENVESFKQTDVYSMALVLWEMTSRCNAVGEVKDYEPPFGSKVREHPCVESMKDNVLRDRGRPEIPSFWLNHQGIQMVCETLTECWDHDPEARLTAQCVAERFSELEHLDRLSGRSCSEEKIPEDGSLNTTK
Sequence of STK33 (Q9BYT3 whole entry): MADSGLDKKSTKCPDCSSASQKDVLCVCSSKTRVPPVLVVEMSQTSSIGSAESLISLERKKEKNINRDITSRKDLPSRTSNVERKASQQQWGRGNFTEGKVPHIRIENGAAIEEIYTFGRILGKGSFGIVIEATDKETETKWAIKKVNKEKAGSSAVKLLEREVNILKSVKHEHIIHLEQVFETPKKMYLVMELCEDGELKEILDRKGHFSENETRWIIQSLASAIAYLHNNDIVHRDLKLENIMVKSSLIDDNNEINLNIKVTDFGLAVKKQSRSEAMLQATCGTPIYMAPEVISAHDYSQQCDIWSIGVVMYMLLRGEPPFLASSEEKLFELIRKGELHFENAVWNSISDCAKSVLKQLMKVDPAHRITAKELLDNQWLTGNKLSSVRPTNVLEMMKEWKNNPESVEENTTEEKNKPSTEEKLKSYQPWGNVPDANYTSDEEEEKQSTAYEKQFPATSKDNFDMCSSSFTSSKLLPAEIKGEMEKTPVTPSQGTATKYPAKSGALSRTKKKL

`O=C1CCC(N2C(=O)c3cccc(NCCCCCCCCNC(=O)N4CC[C@H](NC5=Nc6cc(F)ccc6N(CC(F)F)c6ccc(Cl)cc65)C4)c3C2=O)C(=O)N1` (stereo partly drawn) [BJG-05-039, (3S)-3-((2-Chloro-5-(2,2-difluoroethyl)-8-fluoro-5H-dibenzo[b,e][1,4]diazepin-11-yl)amino)-N-(8-((2-(2,6-dioxopiperidin-3-yl)-1,3-dioxoisoindolin-4-yl)amino)octyl)pyrrolidine-1-carboxamide] showed a remaining binding at 10 µM (TGFBR2) of 75%, a remaining binding at 10 µM (STK33) of 75% and a remaining binding at 10 µM (TNK1) of 83%. For the same molecule, the remaining binding at 10 µM (ADCK3) was 83%, the remaining binding at 10 µM (SIK) was 95% and the remaining binding at 10 µM [1] was 78%. The remaining binding at 10 µM (GRK3) was 92%, the remaining binding at 10 µM (ERK1) was 83% and the remaining binding at 10 µM (WEE1) was 42%. The remaining binding at 10 µM (ERBB4) was 97%, the remaining binding at 10 µM (MAP3K2) was 76% and the remaining binding at 10 µM (ASK1) was 73%. The remaining binding at 10 µM (PYK2) was 85%, the remaining binding at 10 µM (EIF2AK1) was 98% and the remaining binding at 10 µM (PHKG2) was 40%. It also gave a remaining binding at 10 µM (ALK) of 97%, a remaining binding at 10 µM (CTK) of 89% and a remaining binding at 10 µM (ROS1) of 94%. The remaining binding at 10 µM (CDKL3) was 98%, the remaining binding at 10 µM [2] was 100% and the remaining binding at 10 µM (MST3) was 52%. For the same molecule, the remaining binding at 10 µM (SGK3) was 88%, the remaining binding at 10 µM (CAMK1D) was 68% and the remaining binding at 10 µM (NEK9) was 82%. For the same molecule, the remaining binding at 10 µM (PKN1) was 95%, the remaining binding at 10 µM (RET(M918T)) was 90% and the remaining binding at 10 µM (DRAK1) was 59%. It also gave a remaining binding at 10 µM (DAPK3) of 40% and a remaining binding at 10 µM (TLK2) of 80%.
